In ChEMBL document CHEMBL1125022, “Chiral modifications of dolastatin 10: the potent cytostatic peptide (19aR)-isodolastatin 10” (1990):
≈ marks a conversion by molar mass, not a printed value.

Test system: P388
Experiment: Effect against cell growth of the P388 lymphocytic leukemia (PS system)
Type: functional
Conditions: Mus musculus, read-out: ED50 (the source's name)

Row | Compound | EC50 [ng/mL]
1 | CCC(C)[C@@H]([C@H](CC(=O)N1CCC[C@H]1[C@H](OC)[C@H](C)C(=O)N[C@@H](Cc1ccccc1)c1nccs1)OC)N(C)C(=O)[C@@H](NC(=O)[C@H](C(C)C)N(C)C)C(C)C (some centres undefined) | 620 (≈ 790 nM)
2 | CC[C@@H](C)[C@@H]([C@@H](CC(=O)N1CCC[C@H]1[C@@H](OC)[C@H](C)C(=O)N[C@@H](Cc1ccccc1)c1nccs1)OC)N(C)C(=O)[C@@H](NC(=O)[C@H](C(C)C)N(C)C)C(C)C | 39 (≈ 49.7 nM)
3 | CC[C@@H](C)[C@H]([C@H](CC(=O)N1CCC[C@H]1[C@H](OC)[C@H](C)C(=O)N[C@@H](Cc1ccccc1)c1nccs1)OC)N(C)C(=O)[C@@H](NC(=O)[C@H](C(C)C)N(C)C)C(C)C | 150 (≈ 191 nM)
4 | CC[C@H](C)[C@@H]([C@@H](CC(=O)N1CCC[C@H]1[C@H](OC)[C@@H](C)C(=O)N[C@@H](Cc1ccccc1)c1nccs1)OC)N(C)C(=O)[C@@H](NC(=O)[C@H](C(C)C)N(C)C)C(C)C [DOLASTATIN-10] | 1 (≈ 1.27 nM)
5 | CC[C@@H](C)[C@H]([C@H](CC(=O)N1CCC[C@H]1[C@H](OC)[C@@H](C)C(=O)N[C@@H](Cc1ccccc1)c1nccs1)OC)N(C)C(=O)[C@@H](NC(=O)[C@H](C(C)C)N(C)C)C(C)C | 3.2 (≈ 4.08 nM)
6 | CC[C@@H](C)[C@@H]([C@@H](CC(=O)N1CCC[C@H]1[C@@H](OC)[C@@H](C)C(=O)N[C@@H](Cc1ccccc1)c1nccs1)OC)N(C)C(=O)[C@@H](NC(=O)[C@H](C(C)C)N(C)C)C(C)C | 3.9 (≈ 4.97 nM)
7 | CCC(C)[C@H]([C@@H](CC(=O)N1CCC[C@H]1[C@H](OC)[C@H](C)C(=O)N[C@@H](Cc1ccccc1)c1nccs1)OC)N(C)C(=O)[C@@H](NC(=O)[C@H](C(C)C)N(C)C)C(C)C (some centres undefined) | > 1000
8 | CCC(C)[C@H]([C@H](CC(=O)N1CCC[C@H]1[C@H](OC)[C@@H](C)C(=O)N[C@@H](Cc1ccccc1)c1nccs1)OC)N(C)C(=O)[C@@H](NC(=O)[C@H](C(C)C)N(C)C)C(C)C (some centres undefined) | 3.2 (≈ 4.08 nM)
9 | CC[C@@H](C)[C@H]([C@@H](CC(=O)N1CCC[C@H]1[C@@H](OC)[C@H](C)C(=O)N[C@@H](Cc1ccccc1)c1nccs1)OC)N(C)C(=O)[C@@H](NC(=O)[C@H](C(C)C)N(C)C)C(C)C | > 1000
10 | CCC(C)[C@H]([C@H](CC(=O)N1CCC[C@H]1[C@H](OC)[C@H](C)C(=O)N[C@@H](Cc1ccccc1)c1nccs1)OC)N(C)C(=O)[C@@H](NC(=O)[C@H](C(C)C)N(C)C)C(C)C (some centres undefined) | 270 (≈ 344 nM)
11 | CC[C@@H](C)[C@@H]([C@@H](CC(=O)N1CCC[C@H]1[C@H](OC)[C@H](C)C(=O)N[C@@H](Cc1ccccc1)c1nccs1)OC)N(C)C(=O)[C@@H](NC(=O)[C@H](C(C)C)N(C)C)C(C)C | 5.6 (≈ 7.13 nM)
12 | CC[C@@H](C)[C@@H]([C@@H](CC(=O)N1CCC[C@H]1[C@H](OC)[C@@H](C)C(=O)N[C@@H](Cc1ccccc1)c1nccs1)OC)N(C)C(=O)[C@@H](NC(=O)[C@H](C(C)C)N(C)C)C(C)C | 0.049 (≈ 0.0624 nM)
13 | CCC(C)[C@@H]([C@@H](CC(=O)N1CCC[C@H]1[C@H](OC)[C@H](C)C(=O)N[C@@H](Cc1ccccc1)c1nccs1)OC)N(C)C(=O)[C@@H](NC(=O)[C@H](C(C)C)N(C)C)C(C)C (some centres undefined) | 1.6 (≈ 2.04 nM)
14 | CC[C@@H](C)[C@H]([C@H](CC(=O)N1CCC[C@H]1[C@@H](OC)[C@@H](C)C(=O)N[C@@H](Cc1ccccc1)c1nccs1)OC)N(C)C(=O)[C@@H](NC(=O)[C@H](C(C)C)N(C)C)C(C)C | 200 (≈ 255 nM)
15 | CC[C@@H](C)[C@@H]([C@H](CC(=O)N1CCC[C@H]1[C@H](OC)[C@H](C)C(=O)N[C@@H](Cc1ccccc1)c1nccs1)OC)N(C)C(=O)[C@@H](NC(=O)[C@H](C(C)C)N(C)C)C(C)C | 410 (≈ 522 nM)
16 | CC[C@@H](C)[C@H]([C@H](CC(=O)N1CCC[C@H]1[C@@H](OC)[C@H](C)C(=O)N[C@@H](Cc1ccccc1)c1nccs1)OC)N(C)C(=O)[C@@H](NC(=O)[C@H](C(C)C)N(C)C)C(C)C | 630 (≈ 802 nM)
17 | CC[C@@H](C)[C@@H]([C@H](CC(=O)N1CCC[C@H]1[C@H](OC)[C@@H](C)C(=O)N[C@@H](Cc1ccccc1)c1nccs1)OC)N(C)C(=O)[C@@H](NC(=O)[C@H](C(C)C)N(C)C)C(C)C | 600 (≈ 764 nM)
18 | CC[C@@H](C)[C@@H]([C@H](CC(=O)N1CCC[C@H]1[C@@H](OC)[C@H](C)C(=O)N[C@@H](Cc1ccccc1)c1nccs1)OC)N(C)C(=O)[C@@H](NC(=O)[C@H](C(C)C)N(C)C)C(C)C | > 1000
19 | CC[C@@H](C)[C@H]([C@@H](CC(=O)N1CCC[C@H]1[C@H](OC)[C@H](C)C(=O)N[C@@H](Cc1ccccc1)c1nccs1)OC)N(C)C(=O)[C@@H](NC(=O)[C@H](C(C)C)N(C)C)C(C)C | > 1000
